Converted amounts (≈) assume the structure as drawn.
Assays:
MCF7 [1] = experiment: Cytotoxicity against human MCF7 cells assessed as reduction in cell viability after 48 hrs by MTT assay; assay type: functional, cell-based; conditions: MCF7, 48 h
SH-SY5Y = experiment: Cytotoxicity against human SH-SY5Y cells assessed as reduction in cell viability after 48 hrs by MTT assay; assay type: functional, cell-based
[2] = Cytotoxicity against human PC3 cells assessed as reduction in cell viability after 48 hrs by MTT assay; assay type: functional, cell-based; conditions: PC-3, 48 h
Tobacco mosaic virus [3] = experiment: Antiviral activity against TMV infected in Nicotiana glutinosa leaves assessed as inhibition of lesions at 20 uM pretreated for 30 mins followed by viral infection measured after 3 to 4 days by half-leaf method relative to control; assay type: functional
A549 [4] = experiment: Cytotoxicity against human A549 cells assessed as reduction in cell viability after 48 hrs by MTT assay; assay type: functional, cell-based; conditions: A549, 48 h
[5] = Cytotoxicity against human NB4 cells assessed as reduction in cell viability after 48 hrs by MTT assay; assay type: functional, cell-based; conditions: NB-4, 48 h
[6] = Therapeutic ratio of LC50 to EC50 for Balanus amphitritea; assay type: ADME; conditions: amphibalanus amphitrite; read-out: TI
A549 [7] = experiment: Cytotoxicity against human A549 cells assessed as reduction in cell viability after 3 days by MTT assay; assay type: functional, cell-based; conditions: A549, 72 h
MCF7 [8] = experiment: Cytotoxicity against human MCF7 cells assessed as reduction in cell viability after 3 days by MTT assay; assay type: functional, cell-based; conditions: MCF7, 72 h
Tobacco mosaic virus [9] = experiment: Antiviral activity against TMV assessed as inhibition of viral infection at 20 uM by half-leaf method relative to control; assay type: functional
NCI-H187 [10] = experiment: Cytotoxicity against human NCI-H187 cells assessed as reduction in cell viability by resazurin microplate assay; assay type: functional, cell-based
KB [11] = experiment: Cytotoxicity against human KB cells; assay type: functional, cell-based
NCI-H187 [12] = experiment: Cytotoxicity against human NCI-H187 cells; assay type: functional, cell-based
KB [13] = experiment: Cytotoxicity against human KB cells assessed as reduction in cell viability by resazurin microplate assay; assay type: functional, cell-based
Aromatase = target: T1, Aromatase (Homo sapiens, UniProt P11511); experiment: Inhibition of aromatase (unknown origin)
T1 sequence (P11511 whole entry): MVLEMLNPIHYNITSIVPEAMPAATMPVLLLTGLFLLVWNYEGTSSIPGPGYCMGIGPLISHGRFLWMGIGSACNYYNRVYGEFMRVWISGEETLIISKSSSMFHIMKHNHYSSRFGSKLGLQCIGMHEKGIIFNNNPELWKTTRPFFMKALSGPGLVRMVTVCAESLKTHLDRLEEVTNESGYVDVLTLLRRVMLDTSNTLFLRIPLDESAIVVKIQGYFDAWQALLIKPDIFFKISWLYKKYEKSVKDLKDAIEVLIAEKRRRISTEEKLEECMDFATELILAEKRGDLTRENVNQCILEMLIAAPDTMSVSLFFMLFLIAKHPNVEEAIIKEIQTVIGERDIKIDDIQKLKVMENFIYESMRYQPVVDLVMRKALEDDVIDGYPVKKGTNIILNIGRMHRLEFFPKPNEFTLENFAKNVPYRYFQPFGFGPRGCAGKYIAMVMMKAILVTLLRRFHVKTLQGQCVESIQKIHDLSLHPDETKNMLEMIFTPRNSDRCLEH

[14] = Antioxidant activity assessed as radical scavenging activity; assay type: physicochemical
Kallikrein-7 = Kallikrein-7 (Homo sapiens, UniProt P49862); experiment: Competitive inhibition of human kallikrein-7
Kallikrein-5 = target: T2, Kallikrein-5 (Homo sapiens, UniProt Q9Y337); experiment: Competitive inhibition of human kallikrein-5
T2 sequence (Q9Y337 whole entry): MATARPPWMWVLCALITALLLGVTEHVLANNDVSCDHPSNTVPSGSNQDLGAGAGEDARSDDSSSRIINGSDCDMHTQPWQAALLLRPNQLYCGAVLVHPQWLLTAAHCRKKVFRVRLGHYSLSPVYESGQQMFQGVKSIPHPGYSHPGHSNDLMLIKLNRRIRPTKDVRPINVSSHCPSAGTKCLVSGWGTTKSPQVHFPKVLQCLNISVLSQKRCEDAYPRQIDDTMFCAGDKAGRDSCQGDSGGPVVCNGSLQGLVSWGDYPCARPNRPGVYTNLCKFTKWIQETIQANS

MCF7 [15] = experiment: Cytotoxicity against human MCF7 cells; assay type: functional, cell-based
HepG2 = experiment: Cytotoxicity against human HepG2 cells; assay type: functional, cell-based
Rattus norvegicus = experiment: Anti-ulcer activity in Sprague-Dawley rat stomach assessed as protection against stress-induced gastric ulcer at 25 mg/kg, po pretreated for 30 mins followed by stress measured after 6 hrs relative to control; assay type: functional
P388 = experiment: Cytotoxicity against mouse P388 cells; assay type: functional, cell-based
Staphylococcus aureus = experiment: Antibacterial activity against Staphylococcus aureus; assay type: functional
Echinochloa frumentacea = experiment: Growth inhibition of Barnyard millet seeds at 50 uM after 5 days relative to control; assay type: functional; conditions: 120 h, read-out: GI

Chain of Kallikrein-7 (P49862 whole entry): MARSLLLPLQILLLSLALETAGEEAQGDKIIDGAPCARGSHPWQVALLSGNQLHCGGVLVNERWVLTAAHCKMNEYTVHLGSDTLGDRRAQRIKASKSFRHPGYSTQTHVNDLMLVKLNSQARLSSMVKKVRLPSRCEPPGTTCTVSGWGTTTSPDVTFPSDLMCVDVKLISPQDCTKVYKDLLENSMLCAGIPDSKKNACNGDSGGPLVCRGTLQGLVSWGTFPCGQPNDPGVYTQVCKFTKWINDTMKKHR

Structure (SMILES): COc1ccc(CCCO)c2cc(CC(C)=O)oc(=O)c12
- IC50 (MCF7 [1]): 2.8 µM
- IC50 (SH-SY5Y): 2.8 µM
- IC50 [2]: 2.8 µM
- inhibition at 20 µM (Tobacco mosaic virus [3]): 30.6%
- IC50 (A549 [4]): 2.8 µM
- IC50 [5]: 2.8 µM

Structure (SMILES): CCCCC[C@H]1OC(=O)c2c(O)c(CC=C(C)C)cc(O)c2[C@H]1OC
- selectivity ratio [6]: > 15

Structure (SMILES): COc1c(O)cc2c(c1CC=C(C)C)C[C@@H](C)OC2=O
- IC50 (A549 [7]): 3.8 µM
- IC50 (MCF7 [8]): 4 µM
- inhibition at 20 µM (Tobacco mosaic virus [9]): 28.6%

Structure (SMILES): CC1(C)CCc2c(cc(O)c3c2CC(CO)OC3=O)O1 (centres undefined)
- inhibition at 20 µM (Tobacco mosaic virus [9]): 33.8%

Structure (SMILES): COc1c(O)c(-c2c(O)c(OC)c(O)c3c(=O)oc(C)cc23)c2cc(C)oc(=O)c2c1O
- IC50 (NCI-H187 [10]): 8.31 µg/mL (≈ 18.8 µM)
- IC50 (KB [11]): 24.4 µg/mL (≈ 55.2 µM)
- IC50 (NCI-H187 [12]): 8.31 µg/mL (≈ 18.8 µM)
- IC50 (KB [13]): 24.4 µg/mL (≈ 55.2 µM)

Structure (SMILES): C[C@H](O)C/C=C/CCCCC1Cc2cc(O)cc(O)c2C(=O)O1 (some centres undefined)
- IC50 (Aromatase): 12.3 µM
- IC50 [14]: 21.7 µM

Structure (SMILES): C/C=C/CC[C@H]1OC(=O)c2c(O)c(CC=C(C)C)cc(O)c2[C@H]1OC
- selectivity ratio [6]: > 15

Structure (SMILES): COC1=C(c2c(OC)cc3c(c2O)C(=O)C2=C(C[C@H](C)OC2=O)C3=O)C(=O)c2c(O)c3c(c(O)c2C1=O)C[C@H](C)OC3=O
- Ki (Kallikrein-7): 12.2 µM
- Ki (Kallikrein-5): 22.9 µM

Structure (SMILES): C[C@@H]1Cc2cc(O)c(C=O)c(O)c2C(=O)O1
- IC50 (MCF7 [15]): 6.67 µM
- IC50 (HepG2): 6.41 µM

Structure (SMILES): CC(C)C[C@H](NC(=O)[C@@H](O)[C@H]1OC(=O)C[C@@H]1N)[C@@H]1Cc2cccc(O)c2C(=O)O1
- Activity (Rattus norvegicus): 83%

Structure (SMILES): Cc1c(O)cc2c(c1O)C(=O)O[C@H](CO)C2
- IC50 (MCF7 [15]): 6.67 µM
- IC50 (HepG2): 6.41 µM

Structure (SMILES): CC(C)C[C@H](NC(=O)[C@@H](O)[C@@H](O)[C@@H](N)CC(=O)O)[C@@H]1Cc2cccc(O)c2C(=O)O1
- Activity (Rattus norvegicus): 100%

Structure (SMILES): CC(C)C[C@H](NC(=O)[C@@H](O)[C@@H](O)[C@@H](N)CC(N)=O)[C@@H]1Cc2cccc(O)c2C(=O)O1
- Activity (Rattus norvegicus): 72%

Structure (SMILES): CC[C@H](N)[C@H](O)[C@H](O)CC(=O)N[C@@H](CC(C)C)[C@@H]1Cc2cccc(O)c2C(=O)O1
- IC50 (P388): 15 µM
- MIC (Staphylococcus aureus): 12 µM (≈ 4.9 µg/mL)

Structure (SMILES): CC[C@@H]1Cc2cc(O)cc(O)c2C(=O)O1
- IC50 (MCF7 [15]): 6.67 µM
- IC50 (HepG2): 6.41 µM

Structure (SMILES): CC(=O)Cc1cc2c(CCCO)cc(O)cc2c(=O)o1
- IC50 (MCF7 [1]): 2.8 µM
- IC50 (SH-SY5Y): 2.8 µM
- IC50 [2]: 2.8 µM
- inhibition at 20 µM (Tobacco mosaic virus [3]): 28.4%
- IC50 (A549 [4]): 2.8 µM
- IC50 [5]: 2.8 µM

Structure (SMILES): Cc1c(O)cc2c(c1O)C(=O)O[C@H](C)C2
- IC50 (MCF7 [15]): 6.67 µM
- IC50 (HepG2): 6.41 µM

Structure (SMILES): CCCC1Cc2cc(O)c(Br)c(O)c2C(=O)O1 (centres undefined)
- IC50 (P388): 0.19 µg/mL

Structure (SMILES): COc1cc2c(c3c1OC(C)(C)CC3=O)C[C@@H](C)OC2=O
- IC50 (A549 [7]): 3.8 µM
- IC50 (MCF7 [8]): 4 µM
- inhibition at 20 µM (Tobacco mosaic virus [9]): 28.6%

Structure (SMILES): CC(C)C[C@H](NC(=O)[C@@H](O)[C@H]1O[C@](C)(O)[C@@]2(C)NC(=O)C[C@@H]1N2)[C@@H]1Cc2cccc(O)c2C(=O)O1
- inhibition of growth at 50 µM (Echinochloa frumentacea): 82%

Structure (SMILES): COc1cc2c(OC)c3cc(C)oc(=O)c3c(O)c2c(O)c1-c1c(OC)cc2c(OC)c3cc(C)oc(=O)c3c(O)c2c1O
- Ki (Kallikrein-5): 22.9 µM

Structure (SMILES): CC(C)C[C@H](NC(=O)C[C@@H](O)[C@H]1O[C@](C)(O)[C@H](C)NC1CC(N)=O)[C@@H]1Cc2cccc(O)c2C(=O)O1 (some centres undefined)
- inhibition of growth at 50 µM (Echinochloa frumentacea): 7%

Structure (SMILES): COc1cc(OC)c2c(c1CC=C(C)C)C[C@@H](C)OC2=O
- IC50 (A549 [7]): 3.8 µM
- IC50 (MCF7 [8]): 4 µM
- inhibition at 20 µM (Tobacco mosaic virus [9]): 28.6%

Reference: ChEMBL document CHEMBL3797191, “Isocoumarins, miraculous natural products blessed with diverse pharmacological activities” (Eur J Med Chem, 2016)
